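A five-concentration, 48-hour dose response in 96-well plates underlies each endpoint, interpolated linearly between surrounding concentrations. GI50 marks 50% less growth. TGI marks complete inhibition of growth.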
What was measured:
Experiment in all cases: inhibition of tumour cell growth, NCI panel, 48 h
[1] = tested on: K-562 leukemia
[2] = tested on: HCT-116 colon
[3] = tested on: HL-60(TB) leukemia
[4] = tested on: SR leukemia
[5] = tested on: OVCAR-4 ovarian
[6] = tested on: NCI-H522 lung
[7] = tested on: SK-MEL-5 melanoma
[8] = tested on: SNB-19 CNS
[9] = tested on: SK-MEL-28 melanoma
[10] = tested on: KM12 colon
[11] = tested on: RPMI-8226 leukemia
[12] = tested on: 786-0 renal
[13] = tested on: MDA-MB-435
[14] = tested on: HT29 colon
[15] = tested on: MOLT-4 leukemia
[16] = tested on: OVCAR-3 ovarian
[17] = tested on: SF-539 CNS
[18] = tested on: RXF 393 renal
[19] = tested on: SK-OV-3 ovarian
[20] = tested on: CAKI-1 renal
[21] = tested on: SF-268 CNS
[22] = tested on: PC-3 prostate
[23] = tested on: IGROV1 ovarian
[24] = tested on: NCI-H460 lung
[25] = tested on: SNB-75 CNS
[26] = tested on: OVCAR-5 ovarian
[27] = tested on: UACC-257 melanoma
[28] = tested on: CCRF-CEM leukemia
[29] = tested on: BT-549 breast
[30] = tested on: ACHN renal
[31] = tested on: NCI-H23 lung
[32] = tested on: A498 renal
[33] = tested on: SN12C renal
[34] = tested on: HOP-62 NSCLC
[35] = tested on: LOX IMVI melanoma
[36] = tested on: M14 melanoma
[37] = tested on: A549 NSCLC
[38] = tested on: COLO 205 colon
[39] = tested on: UACC-62 melanoma
[40] = tested on: OVCAR-8 ovarian
[41] = tested on: MCF7 breast
[42] = tested on: SF-295 CNS
[43] = tested on: TK-10 renal
[44] = tested on: UO-31 renal
[45] = tested on: MDA-MB-231 breast
[46] = tested on: MALME-3M melanoma
[47] = tested on: NCI/ADR-RES ovarian
[48] = tested on: U251 CNS
[49] = tested on: EKVX NSCLC
[50] = tested on: SW-620 colon
[51] = tested on: HCC-2998 colon
[52] = tested on: DU-145 prostate
[53] = tested on: NCI-H226 lung
[54] = tested on: HCT-15 colon
[55] = tested on: T-47D breast
[56] = tested on: HS 578T breast
[57] = tested on: SK-MEL-2 melanoma

## CN(C)c1ccc(Nc2ncnc3ccccc23)cc1
[1]
  GI50: > 100 µM
  TGI: > 100 µM
[2]
  GI50: > 100 µM
  TGI: > 100 µM
[3]
  GI50: > 100 µM
  TGI: > 100 µM
[4]
  GI50: 54.3 µM
  TGI: > 100 µM
[5]
  GI50: > 100 µM
  TGI: > 100 µM
[6]
  GI50: > 100 µM
  TGI: > 100 µM
[7]
  GI50: > 100 µM
  TGI: > 100 µM
[8]
  GI50: > 100 µM
  TGI: > 100 µM
[9]
  GI50: > 100 µM
  TGI: > 100 µM
[10]
  GI50: > 100 µM
  TGI: > 100 µM
[11]
  GI50: > 100 µM
  TGI: > 100 µM
[12]
  GI50: > 100 µM
  TGI: > 100 µM
[13]
  GI50: > 100 µM
  TGI: > 100 µM
[14]
  GI50: > 100 µM
  TGI: > 100 µM
[15]
  GI50: 18.8 µM
  TGI: > 100 µM
[16]
  GI50: > 100 µM
  TGI: > 100 µM
[17]
  GI50: > 100 µM
  TGI: > 100 µM
[18]
  GI50: > 100 µM
  TGI: > 100 µM
[19]
  GI50: > 100 µM
  TGI: > 100 µM
[20]
  GI50: > 100 µM
  TGI: > 100 µM
[21]
  GI50: > 100 µM
  TGI: > 100 µM
[22]
  GI50: > 100 µM
  TGI: > 100 µM
[23]
  GI50: > 100 µM
  TGI: > 100 µM
[24]
  GI50: > 100 µM
  TGI: > 100 µM
[25]
  GI50: > 100 µM
  TGI: > 100 µM
[26]
  GI50: > 100 µM
  TGI: > 100 µM
[27]
  GI50: > 100 µM
  TGI: > 100 µM
[28]
  GI50: > 100 µM
  TGI: > 100 µM
[29]
  GI50: > 100 µM
  TGI: > 100 µM
[30]
  GI50: > 100 µM
  TGI: > 100 µM
[31]
  GI50: > 100 µM
  TGI: > 100 µM
[32]
  GI50: > 100 µM
  TGI: > 100 µM
[33]
  GI50: > 100 µM
  TGI: > 100 µM
[34]
  GI50: > 100 µM
  TGI: > 100 µM
[35]
  GI50: > 100 µM
  TGI: > 100 µM
[36]
  GI50: > 100 µM
  TGI: > 100 µM
[37]
  GI50: > 100 µM
  TGI: > 100 µM
[38]
  GI50: > 100 µM
  TGI: > 100 µM
[39]
  GI50: > 100 µM
  TGI: > 100 µM
[40]
  GI50: > 100 µM
  TGI: > 100 µM
[41]
  GI50: > 100 µM
  TGI: > 100 µM
[42]
  GI50: > 100 µM
  TGI: > 100 µM
[43]
  GI50: > 100 µM
  TGI: > 100 µM
[44]
  GI50: > 100 µM
  TGI: > 100 µM
[45]
  GI50: > 100 µM
  TGI: > 100 µM
[46]
  GI50: > 100 µM
  TGI: > 100 µM
[47]
  GI50: > 100 µM
  TGI: > 100 µM
[48]
  GI50: > 100 µM
  TGI: > 100 µM
[49]
  GI50: > 100 µM
  TGI: > 100 µM
[50]
  GI50: > 100 µM
  TGI: > 100 µM
[51]
  GI50: > 100 µM
  TGI: > 100 µM
[52]
  GI50: > 100 µM
  TGI: > 100 µM
[53]
  GI50: > 100 µM
  TGI: > 100 µM
[54]
  GI50: > 100 µM
  TGI: > 100 µM
[55]
  GI50: > 100 µM
  TGI: > 100 µM
[56]
  GI50: > 100 µM
  TGI: > 100 µM

## COC1CCN(N(C)C)O1 (configuration not stated)
[1]
  TGI: > 100 µM
[2]
  TGI: > 100 µM
[3]
  TGI: > 100 µM
[4]
  TGI: > 100 µM
[5]
  TGI: > 100 µM
[6]
  TGI: > 100 µM
[7]
  TGI: > 100 µM
[8]
  TGI: > 100 µM
[9]
  TGI: > 100 µM
[10]
  TGI: > 100 µM
[11]
  TGI: > 100 µM
[12]
  TGI: > 100 µM
[13]
  TGI: > 100 µM
[14]
  TGI: > 100 µM
[15]
  TGI: > 100 µM
[16]
  TGI: > 100 µM
[18]
  TGI: > 100 µM
[20]
  TGI: > 100 µM
[21]
  TGI: > 100 µM
[22]
  TGI: > 100 µM
[23]
  TGI: > 100 µM
[24]
  TGI: > 100 µM
[25]
  TGI: > 100 µM
[26]
  TGI: > 100 µM
[27]
  TGI: > 100 µM
[28]
  TGI: > 100 µM
[29]
  TGI: > 100 µM
[30]
  TGI: > 100 µM
[31]
  TGI: > 100 µM
[32]
  TGI: > 100 µM
[33]
  TGI: > 100 µM
[34]
  TGI: > 100 µM
[35]
  TGI: > 100 µM
[36]
  TGI: > 100 µM
[37]
  TGI: > 100 µM
[38]
  TGI: > 100 µM
[39]
  TGI: > 100 µM
[57]
  TGI: > 100 µM
[40]
  TGI: > 100 µM
[41]
  TGI: > 100 µM
[42]
  TGI: > 100 µM
[43]
  TGI: > 100 µM
[44]
  TGI: > 100 µM
[45]
  TGI: > 100 µM
[46]
  TGI: > 100 µM
[47]
  TGI: > 100 µM
[48]
  TGI: > 100 µM
[49]
  TGI: > 100 µM
[50]
  TGI: > 100 µM
[51]
  TGI: > 100 µM
[52]
  TGI: > 100 µM
[53]
  TGI: > 100 µM
[54]
  TGI: > 100 µM
[55]
  TGI: > 100 µM
[56]
  TGI: > 100 µM

## Cc1ccc(/C(=N/NS(=O)(=O)c2ccc([N+](=O)[O-])cc2)Sc2cc(Cl)c(C)cc2S(N)(=O)=O)cc1
[1]
  GI50: > 100 µM
  TGI: > 100 µM
[2]
  GI50: > 100 µM
  TGI: > 100 µM
[3]
  GI50: > 100 µM
  TGI: > 100 µM
[4]
  GI50: > 100 µM
  TGI: > 100 µM
[5]
  GI50: > 100 µM
  TGI: > 100 µM
[6]
  GI50: > 100 µM
  TGI: > 100 µM
[7]
  GI50: > 100 µM
  TGI: > 100 µM
[8]
  GI50: > 100 µM
  TGI: > 100 µM
[9]
  GI50: > 100 µM
  TGI: > 100 µM
[10]
  GI50: > 100 µM
  TGI: > 100 µM
[11]
  GI50: 11.9 µM
  TGI: > 100 µM
[12]
  GI50: > 100 µM
  TGI: > 100 µM
[13]
  GI50: > 100 µM
  TGI: > 100 µM
[14]
  GI50: > 100 µM
  TGI: > 100 µM
[15]
  GI50: > 100 µM
  TGI: > 100 µM
[16]
  GI50: > 100 µM
  TGI: > 100 µM
[17]
  GI50: > 100 µM
  TGI: > 100 µM
[18]
  GI50: 47.7 µM
  TGI: > 100 µM
[19]
  GI50: > 100 µM
  TGI: > 100 µM
[20]
  GI50: > 100 µM
  TGI: > 100 µM
[21]
  GI50: > 100 µM
  TGI: > 100 µM
[22]
  GI50: 12.5 µM
  TGI: > 100 µM
[23]
  GI50: > 100 µM
  TGI: > 100 µM
[24]
  GI50: > 100 µM
  TGI: > 100 µM
[25]
  GI50: > 100 µM
  TGI: > 100 µM
[26]
  GI50: > 100 µM
  TGI: > 100 µM
[27]
  GI50: > 100 µM
  TGI: > 100 µM
[28]
  GI50: > 100 µM
  TGI: > 100 µM
[29]
  GI50: > 100 µM
  TGI: > 100 µM
[30]
  GI50: > 100 µM
  TGI: > 100 µM
[31]
  GI50: > 100 µM
  TGI: > 100 µM
[32]
  GI50: > 100 µM
  TGI: > 100 µM
[34]
  GI50: > 100 µM
  TGI: > 100 µM
[35]
  GI50: > 100 µM
  TGI: > 100 µM
[36]
  GI50: > 100 µM
  TGI: > 100 µM
[37]
  GI50: > 100 µM
  TGI: > 100 µM
[38]
  GI50: > 100 µM
  TGI: > 100 µM
[39]
  GI50: > 100 µM
  TGI: > 100 µM
[57]
  GI50: > 100 µM
  TGI: > 100 µM
[40]
  GI50: > 100 µM
  TGI: > 100 µM
[41]
  GI50: > 100 µM
  TGI: > 100 µM
[42]
  GI50: > 100 µM
  TGI: > 100 µM
[43]
  GI50: > 100 µM
  TGI: > 100 µM
[44]
  GI50: > 100 µM
  TGI: > 100 µM
[45]
  GI50: 27.3 µM
  TGI: > 100 µM
[46]
  GI50: 11.9 µM
  TGI: > 100 µM
[47]
  GI50: > 100 µM
  TGI: > 100 µM
[48]
  GI50: > 100 µM
  TGI: > 100 µM
[49]
  GI50: > 100 µM
  TGI: > 100 µM
[50]
  GI50: > 100 µM
  TGI: > 100 µM
[52]
  GI50: > 100 µM
  TGI: > 100 µM
[53]
  GI50: > 100 µM
  TGI: > 100 µM
[54]
  GI50: > 100 µM
  TGI: > 100 µM
[55]
  GI50: > 100 µM
  TGI: > 100 µM
[56]
  GI50: > 100 µM
  TGI: > 100 µM

Reference: PubChem BioAssay (NCI)
